# Data taken from US12606541B2, “PPARg modulators and methods of use” (Eisai R&D Management Co., Ltd., priority 2020, dated 2026).
# pIC50: −log10 of the molar value. Read-outs that look alike come from different tables or passages of the source.
# Columns and labels:
# His6-TEV-PPARγ-(234-505) = target: T1, His6-TEV-PPARγ-(234-505) (Homo sapiens, UniProt P37231); experiment: TR-FRET Assay to Measure Co-R Peptide Recruitment to PPARγ; assay type: biochemical; details: Co-R peptide (SMRT-ID2) recruitment, top final concentration 20 μM, read-out: TR-FRET i-Ag, AC50
# T1 construct: The His6-TEV-PPARγ-(234-505) protein for assay was expressed and purified; TEV cleavage site (N); made in house
# T1 sequence (P37231 234-505): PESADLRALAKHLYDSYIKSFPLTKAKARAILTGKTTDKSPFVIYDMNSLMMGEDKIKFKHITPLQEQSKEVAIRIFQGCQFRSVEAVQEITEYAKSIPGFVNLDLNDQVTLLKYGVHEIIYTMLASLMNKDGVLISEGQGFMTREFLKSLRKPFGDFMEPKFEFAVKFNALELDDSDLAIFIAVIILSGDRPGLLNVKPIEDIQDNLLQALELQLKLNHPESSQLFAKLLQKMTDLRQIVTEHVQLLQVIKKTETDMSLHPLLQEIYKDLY
# Summary of the method: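 His-tagged PPARγ (or controls) was preincubated with compound for 20 minutes at room temperature, then 5 nM anti-His terbium antibody and 200 nM FITC-labeled SMRT-ID2 corepressor peptide (final) were added for a further hour. TR-FRET signal was normalized to percent response using 500 nM T0070907 and DMSO controls.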
# UM-UC-9 engineered cells = experiment: Cell proliferation / short-term viability assay, CellTiter-Glo 144 h; assay type: cell-based, human; details: read-out: CTGlo 144 h UMUC9.5, G150
# Summary of the method: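 UM-UC-9 engineered assay-ready cells seeded at 500 cells/well in high-glucose DMEM/10% FBS, treated from dose-response plates, grown at 37° C, 5% CO2. CellTiter-Glo 2.0 luminescence read on day 7, with a day-0 pretreatment plate as T0 reference and DMSO wells as negative control.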
AC50 (His6-TEV-PPARγ-(234-505)),SMILES,"pIC50 (UM-UC-9 engineered cells; Homo sapiens, UM-UC-9, 144 h)",other results
5.2 nM,"COc1cc(-c2cc(C(=O)N3CC[C@H](C(=O)N[C@H]4CC[C@@](O)(C(F)(F)F)CC4)CC34CCC4)n[nH]2)c(F)cn1 (racemic) [Example 486, (S)-5-(5-(5-fluoro-2-methoxypyridin-4-yl)-1H-pyrazole-3-carbonyl)-N-((1r,4S)-4-hydroxy-4-(trifluoromethyl)cyclohexyl)-5-azaspiro[3.5]nonane-8-carboxamide and (R)-5-(5-(5-fluoro-2-methoxypyridin-4-yl)-1H-pyrazole-3-carbonyl)-N-((1r,4R)-4-hydroxy-4-(trifluoromethyl)cyclohexyl)-5-azaspiro[3.5]nonane-8-carboxamide]",7.35,
10.3 nM,"Cc1cc(-c2cc(C(=O)N3CC[C@H](C(=O)NCc4ncccc4C4CC4)CC34CC4)[nH]n2)c(F)cn1 (racemic) [Example 506, (S)—N-((3-cyclopropylpyridin-2-yl)methyl)-4-(3-(5-fluoro-2-methylpyridin-4-yl)-1H-pyrazole-5-carbonyl)-4-azaspiro[2.5]octane-7-carboxamide and (R)—N-((3-cyclopropylpyridin-2-yl)methyl)-4-(3-(5-fluoro-2-methylpyridin-4-yl)-1H-pyrazole-5-carbonyl)-4-azaspiro[2.5]octane-7-carboxamide]",7.69,
160 nM,"CC[C@H]1CC[C@@H](NC(=O)C2CCN(C(=O)c3cc(-c4ccnc(OC)c4)[nH]n3)CC2)CC1 (single isomer, unassigned) [Example 108-A, N-((1s,4s)-4-ethylcyclohexyl)-1-(5-(2-methoxypyridin-4-yl)-1H-pyrazole-3-carbonyl)piperidine-4-carboxamide]",6.17,
,"COc1cc(-c2[nH]nc(C(=O)N3CCC(C(=O)NC4CCC(C)CC4)CC3)c2Cl)ccn1 (single isomer, unassigned) [Example 110-A]",,AC50 (His6-TEV-PPARγ-(234-505); listed as 110a): 2160 nM; pIC50 (UM-UC-9 engineered cells; listed as 110a): 5.50
,"COc1cc(-c2[nH]nc(C(=O)N3CCC(C(=O)NC4CCC(C)CC4)CC3)c2Cl)ccn1 (single isomer, unassigned) [Example 110-B]",,AC50 (His6-TEV-PPARγ-(234-505); listed as 110b): 217 nM; pIC50 (UM-UC-9 engineered cells; listed as 110b): 6.16
,"COc1cc(-c2cc(C(=O)N3CCC(C(=O)NC4CCC(C)CC4)CC3)n[nH]2)c(F)cn1 (single isomer, unassigned) [Example 114-A]",,AC50 (His6-TEV-PPARγ-(234-505); listed as 114a): 3470 nM; pIC50 (UM-UC-9 engineered cells; listed as 114a): 5.35
,"COc1cc(-c2cc(C(=O)N3CCC(C(=O)NC4CCC(C)CC4)CC3)n[nH]2)c(F)cn1 (single isomer, unassigned) [Example 114-B]",,AC50 (His6-TEV-PPARγ-(234-505); listed as 114b): 15.8 nM; pIC50 (UM-UC-9 engineered cells; listed as 114b): 7.57
,"COc1cc(-c2cc(C(=O)N3CCC(C(=O)NC(C)c4cccc(Cl)c4)CC3)n[nH]2)c(Cl)cn1 (single isomer, unassigned) [Example 115-A]",,AC50 (His6-TEV-PPARγ-(234-505); listed as 115a): 717 nM; pIC50 (UM-UC-9 engineered cells; listed as 115a): 5.88
,"COc1cc(-c2cc(C(=O)N3CCC(C(=O)NC(C)c4cccc(Cl)c4)CC3)n[nH]2)c(Cl)cn1 (single isomer, unassigned) [Example 115-B]",,AC50 (His6-TEV-PPARγ-(234-505); listed as 115b): 59.5 nM; pIC50 (UM-UC-9 engineered cells; listed as 115b): 6.58
,"COc1cc(-c2cc(C(=O)N3CCC(C(=O)NC4CCC(C(F)(F)F)CC4)CC3)n[nH]2)c(Cl)cn1 (single isomer, unassigned) [Example 118-A]",,AC50 (His6-TEV-PPARγ-(234-505); listed as 118a): 15.5 nM; pIC50 (UM-UC-9 engineered cells; listed as 118a): 6.93
,"COc1cc(-c2cc(C(=O)N3CCC(C(=O)NC4CCC(C(F)(F)F)CC4)CC3)n[nH]2)c(Cl)cn1 (single isomer, unassigned) [Example 118-B]",,AC50 (His6-TEV-PPARγ-(234-505); listed as 118b): 964 nM; pIC50 (UM-UC-9 engineered cells; listed as 118b): 5.53
79 nM,"COc1cc(-c2cc(C(=O)N3CC[C@@H](C(=O)N[C@H]4CC[C@@](O)(C(F)(F)F)CC4)CC34CC4)n[nH]2)c(F)cn1 (single isomer, unassigned) [Example 169-A]",6.56,
2.3 nM,"COc1cc(-c2cc(C(=O)N3CC[C@H](C(=O)N[C@H]4CC[C@@](O)(C(F)(F)F)CC4)CC34CC4)n[nH]2)c(F)cn1 (single isomer, unassigned) [Example 169-B]",8.85,
8.3 nM,"COc1cc(-c2cc(C(=O)N3CC[C@H](C(=O)NCc4cccc(Cl)c4)CC34CC4)n[nH]2)c(Cl)cn1 (single isomer, unassigned) [Example 245-A]",8.39,
109 nM,"COc1cc(-c2cc(C(=O)N3CC[C@@H](C(=O)NCc4cccc(Cl)c4)CC34CC4)n[nH]2)c(Cl)cn1 (single isomer, unassigned) [Example 245-B]",6.38,
49.6 nM,"COc1cc(-c2cc(C(=O)N3CC[C@H](C(=O)NCc4cccc(Cl)c4)CC3(C)C)n[nH]2)c(Cl)cn1 (single isomer, unassigned) [Example 255-A]",6.85,
1760 nM,"COc1cc(-c2cc(C(=O)N3CC[C@@H](C(=O)NCc4cccc(Cl)c4)CC3(C)C)n[nH]2)c(Cl)cn1 (single isomer, unassigned) [Example 255-B]",5.39,
92.4 nM,"COc1cc(-c2cc(C(=O)N3CC[C@H](C(=O)NCc4cccc(Cl)c4)CC34CCC4)n[nH]2)c(Cl)cn1 (single isomer, unassigned) [Example 256-A]",7.14,
15900 nM,"COc1cc(-c2cc(C(=O)N3CC[C@@H](C(=O)NCc4cccc(Cl)c4)CC34CCC4)n[nH]2)c(Cl)cn1 (single isomer, unassigned) [Example 256-B]",5.45,
304 nM,"COc1cc(-c2cc(C(=O)N3CC[C@@H](C(=O)N[C@H]4CC[C@@](O)(C(F)(F)F)CC4)CC34CC4)n[nH]2)c(Cl)cn1 (single isomer, unassigned) [Example 286-A]",6.34,
2.2 nM,"COc1cc(-c2cc(C(=O)N3CC[C@H](C(=O)N[C@H]4CC[C@@](O)(C(F)(F)F)CC4)CC34CC4)n[nH]2)c(Cl)cn1 (single isomer, unassigned) [Example 286-B]",8.82,

SMILES,AC50 (His6-TEV-PPARγ-(234-505)),"pIC50 (UM-UC-9 engineered cells; Homo sapiens, UM-UC-9, 144 h)",other results
"COc1cnc(CNC(=O)C2CCN(C(=O)c3cc(-c4cc(C)ncc4F)[nH]n3)C3(CC3)C2)c(Cl)c1 (racemic) [Example 484, (S)—N-((3-chloro-5-methoxypyridin-2-yl)methyl)-4-(5-(5-fluoro-2-methylpyridin-4-yl)-1H-pyrazole-3-carbonyl)-4-azaspiro[2.5]octane-7-carboxamide and (R)—N-((3-chloro-5-methoxypyridin-2-yl)methyl)-4-(5-(5-fluoro-2-methylpyridin-4-yl)-1H-pyrazole-3-carbonyl)-4-azaspiro[2.5]octane-7-carboxamide]",3.8 nM,,pIC50 (UM-UC-9 engineered cells): 7.69
"N#Cc1cc(-c2cc(C(=O)N3CCC(C(=O)NC4CCC(O)(C(F)(F)F)CC4)CC34CC4)n[nH]2)ncn1 (racemic) [Example 528, (R)-4-(5-(6-cyanopyrimidin-4-yl)-1H-pyrazole-3-carbonyl)-N-((1r,4R)-4-hydroxy-4-(trifluoromethyl)cyclohexyl)-4-azaspiro[2.5]octane-7-carboxamide and (S)-4-(5-(6-cyanopyrimidin-4-yl)-1H-pyrazole-3-carbonyl)-N-((1r,4S)-4-hydroxy-4-(trifluoromethyl)cyclohexyl)-4-azaspiro[2.5]octane-7-carboxamide]",6 nM,,pIC50 (UM-UC-9 engineered cells): 6.32
"COc1cc(-c2cc(C(=O)N3CCC(C(=O)NC4CCC(C)CC4)CC3)n[nH]2)c(Cl)cn1 (single isomer, unassigned) [Example 101-B]",9.2 nM,,pIC50 (UM-UC-9 engineered cells; listed as 101b): 7.08
"COc1cc(-c2cc(C(=O)N3[C@@H]4CC[C@H]3C[C@H](C(=O)N[C@H]3CC[C@@](O)(C(F)(F)F)CC3)C4)n[nH]2)c(F)cn1 (single isomer, unassigned) [Example 170-A]",4.7 nM,7.93,
"COc1cc(-c2cc(C(=O)N3[C@@H]4CC[C@H]3C[C@H](C(=O)NC3CCC(C(F)(F)F)OC3)C4)n[nH]2)c(F)cn1 (single isomer, unassigned) [Example 280-A]",895 nM,5.24,
